In the supplement of paper PMC10307832:

Tests used:
Experiment in all cases: relative viability (nuclei count vs DMSO), 5 days (fraction); higher = more cells survive
[1] = compound: CN(C)C[C@@H]1CCn2cc(c3ccccc32)C2=C(C(=O)NC2=O)c2cn(c3ccccc23)CCO1 [Ruboxistaurin] + Cc1nc(NC(=O)N2CCC[C@H]2C(N)=O)sc1-c1ccnc(C(C)(C)C(F)(F)F)c1 [Alpelisib] (partner 2 µM)
Summary of the method: (§1)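 Relative viability equals treated-well nuclei counts divided by vehicle-well nuclei counts. Counts came from 4× images of lung cancer cell lines grown in 1536-well plates for 5 days after pin-tool dosing on the day after seeding. Dosing used one drug alone or a fixed anchor-drug dose plus five library-drug doses (not always all listed) in √10 steps, and values are medians of duplicate plates.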

[2] = compound: CN(C)C[C@@H]1CCn2cc(c3ccccc32)C2=C(C(=O)NC2=O)c2cn(c3ccccc23)CCO1 [Ruboxistaurin] + CS(=O)(=O)N1CCN(Cc2cc3nc(-c4cccc5[nH]ncc45)nc(N4CCOCC4)c3s2)CC1 [Pictilisib] (partner 1 µM)
Summary of the method: as §1

[3] = compound: CN(C)C[C@@H]1CCn2cc(c3ccccc32)C2=C(C(=O)NC2=O)c2cn(c3ccccc23)CCO1 [Ruboxistaurin] + C[C@@H](Oc1cc(-c2cnn(C3CCNCC3)c2)cnc1N)c1c(Cl)ccc(F)c1Cl [Crizotinib] (partner 1 µM)
Summary of the method: as §1

[4] = compound: CN(C)C[C@@H]1CCn2cc(c3ccccc32)C2=C(C(=O)NC2=O)c2cn(c3ccccc23)CCO1 [Ruboxistaurin] + C[C@]1(O)C[C@@H](c2nc(-c3ccc4ccc(-c5ccccc5)nc4c3)c3c(N)nccn32)C1 [Linsitinib] (partner 1 µM)
Summary of the method: as §1

[5] = compound: CN(C)C[C@@H]1CCn2cc(c3ccccc32)C2=C(C(=O)NC2=O)c2cn(c3ccccc23)CCO1 [Ruboxistaurin] + CC(C)C[C@H](NC(=O)[C@H](Cc1ccccc1)NC(=O)c1cnccn1)B(O)O [Bortezomib] (partner 0.002 µM)
Summary of the method: as §1

| Cell Line | relative viability ([1]; first compound 0.08 µM) | relative viability ([1]; first compound 0.8 µM) | relative viability ([1]; first compound 2.53 µM) | relative viability ([1]; first compound 8 µM) | relative viability ([2]; first compound 0.08 µM) | relative viability ([2]; first compound 0.8 µM) | relative viability ([2]; first compound 2.53 µM) | relative viability ([2]; first compound 8 µM) | relative viability ([3]; first compound 0.08 µM) | relative viability ([3]; first compound 0.8 µM) | relative viability ([3]; first compound 2.53 µM) | relative viability ([3]; first compound 8 µM) | relative viability ([4]; first compound 0.08 µM) | relative viability ([4]; first compound 0.8 µM) | relative viability ([4]; first compound 2.53 µM) | relative viability ([4]; first compound 8 µM) | relative viability ([5]; first compound 0.08 µM) | relative viability ([5]; first compound 0.8 µM) | relative viability ([5]; first compound 2.53 µM) | relative viability ([5]; first compound 8 µM) |
| --- | --- | --- | --- | --- | --- | --- | --- | --- | --- | --- | --- | --- | --- | --- | --- | --- | --- | --- | --- | --- |
| LXF-289 | 1.11 | 0.952 | 0.994 | 1 | 0.815 | 0.718 | 0.736 | 0.647 | 0.826 | 0.758 | 0.826 | 0.951 | 0.925 | 0.951 | 0.966 | 1.05 | 1.03 | 0.941 | 0.976 | 1.06 |
| NCI-H23 | 0.831 | 0.617 | 0.71 | 0.686 | 0.428 | 0.374 | 0.392 | 0.38 | 0.542 | 0.395 | 0.552 | 0.533 | 0.627 | 0.402 | 0.544 | 0.484 | 1.2 | 0.871 | 1.01 | 0.929 |
| NCI-H322M | 0.811 | 0.74 | 0.818 | 0.67 | 0.553 | 0.484 | 0.432 | 0.385 | 0.96 | 0.863 | 0.949 | 1.11 | 0.969 | 0.826 | 0.861 | 0.779 | 1.2 | 1.16 | 1.16 | 1.28 |
| NCI-H441 | 0.653 | 0.717 | 0.845 | 0.498 | 0.475 | 0.392 | 0.566 | 0.356 | 0.787 | 0.708 | 0.771 | 0.636 | 0.633 | 0.508 | 0.495 | 0.458 | 0.636 | 0.296 | 0.431 | 0.448 |
| NCI-H460 | 0.398 | 0.324 | 0.26 | 0.137 | 0.378 | 0.256 | 0.371 | 0.325 | 0.772 | 0.822 | 1.02 | 0.537 | 0.919 | 0.6 | 0.855 | 0.349 | 1.1 | 1.03 | 0.916 | 0.824 |
| NCI-H520 | 0.976 | 0.789 | 1.01 | 0.822 | 0.324 | 0.264 | 0.236 | 0.208 | 0.838 | 0.698 | 0.758 | 0.693 | 0.991 | 0.998 | 0.985 | 1.12 | 0.856 | 0.66 | 0.806 | 0.423 |
| NCI-H596 | 0.494 | 0.461 | 0.502 | 0.414 | 0.472 | 0.352 | 0.374 | 0.346 | 1.03 | 0.981 | 1.03 | 0.795 | 1.14 | 1.01 | 1.08 | 0.857 | 0.978 | 0.443 | 0.932 | 1 |
| NCI-H647 | 1.2 | 0.995 | 1.06 | 0.899 | 0.53 | 0.37 | 0.417 | 0.258 | 1.03 | 0.849 | 1.15 | 0.995 | 1.2 | 0.923 | 1.24 | 1.02 | 1.21 | 0.817 | 0.869 | 1.3 |
| NCI-H650 | 1.17 | 0.888 | 1.12 | 1.12 | 1.15 | 0.831 | 0.848 | 0.808 | 0.785 | 0.775 | 0.733 | 0.729 | 0.94 | 0.799 | 1.06 | 0.801 | 0.816 | 0.698 | 0.927 | 0.915 |
| NCI-H661 | 0.982 | 0.696 | 0.902 | 0.567 | 0.463 | 0.499 | 0.493 | 0.422 | 0.991 | 0.924 | 1.08 | 1.08 | 0.809 | 0.538 | 0.718 | 0.545 | 0.887 | 0.664 | 0.883 | 0.88 |
| NCI-H727 | 0.543 | 0.485 | 0.527 | 0.368 | 0.563 | 0.244 | 0.433 | 0.284 | 0.789 | 0.696 | 0.693 | 0.745 | 0.312 | 0.288 | 0.296 | 0.267 | 0.974 | 0.85 | 0.986 | 0.69 |
| NCI-H838 | 1.13 | 0.903 | 0.966 | 0.852 | 0.468 | 0.376 | 0.371 | 0.383 | 0.899 | 0.729 | 1.03 | 0.817 | 1.09 | 0.91 | 1.02 | 0.744 | 0.876 | 0.772 | 1.09 | 0.618 |
| NCI-H1355 | 0.868 | 0.68 | 0.827 | 0.667 | 0.473 | 0.364 | 0.309 | 0.276 | 1.08 | 1 | 1.04 | 1 | 0.904 | 0.753 | 0.728 | 0.658 | 1.19 | 1.21 | 1.18 | 1.16 |
| NCI-H1437 | 1.12 | 0.868 | 1.03 | 1.02 | 0.488 | 0.388 | 0.383 | 0.305 | 0.984 | 0.829 | 0.958 | 1.08 | 1.01 | 0.941 | 1.17 | 0.746 | 0.64 | 0.461 | 0.526 | 0.516 |
| NCI-H1563 | 0.972 | 0.867 | 1.05 | 0.849 | 0.626 | 0.662 | 0.601 | 0.618 | 0.947 | 0.873 | 0.938 | 0.741 | 1.34 | 1.14 | 1.37 | 1.16 | 0.871 | 0.763 | 0.933 | 0.775 |
